“Also recorded” adds a separate entry of the source.
T1: purified His6-hPGES (Homo sapiens, UniProt O14684)
T1 sequence (O14684 1-152): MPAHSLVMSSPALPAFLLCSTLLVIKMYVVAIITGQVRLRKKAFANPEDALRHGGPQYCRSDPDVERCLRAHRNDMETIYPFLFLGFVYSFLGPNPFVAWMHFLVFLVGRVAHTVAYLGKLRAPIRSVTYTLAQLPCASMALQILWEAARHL

B1: Cytosolic PGES LPS-induced: enzyme with PGE synthase activity, Rat, brain (Tanioka et al. 2000); recently identified cytosolic PGES (protein, UniProt P83868 1-160, looked up)
Prostaglandin E synthase 3: MQPASAKWYDRRDYVFIEFCVEDSKDVNVNFEKSKLTFSCLGGSDNFKHLNEIDLFHCIDPNDSKHKRTDRSILCCLRKGESGQSWPRLTKERAKLNWLSVDFNNWKDWEDDSDEDMSNFDRFSEMMDHMGGDEDVDLPEVDGADDDSQDSDDEKMPDLE

How the values were obtained:
purified His6-hPGES [1] = target: T1, purified His6-hPGES; assay: LTC4 synthase activity of purified His6-hPGES with LTA4; format: biochemical; design: made in house; host or cells: E. coli BL21(DE3) with pLysSL; settings: 37 ° C.; up to 100 μg/ml enzyme, 30 μM LTA4, 10 mM GSH, pH 7.4
purified His6-hPGES [2] = target: T1, purified His6-hPGES; assay: Glutathione transferase (GST) activity of purified His6-hPGES with CDNB; format: biochemical; design: made in house; host or cells: E. coli BL21(DE3) with pLysSL; settings: purified His6-hPGES incubated with LTA4
Protocol: Glutathione transferase (GST) activity (glutathione conjugation) was assayed with the classical model substrate for GSTs, p-chloro-2,4-dinitrobenzene (CDNB). […] Formation of product was detected at 340 nm (molar absorption coefficient for the product, GS-DNB, is 9.6 mM^−1 cm^−1).

[3] = Kinetic properties of other enzymes with PGE synthase activity (literature); format: biochemical; settings: cytosolic PGES versus His6-hPGES
[4] = 24° C.; Tanioka et al. (2000); cited from earlier work

Row | Molecule | Specific activity (LTC4 synthase activity) (purified His6-hPGES [1]) | GST activity after incubation of the enzyme with LTA4 (purified His6-hPGES [2]) | Vmax compared with specific activity of purified His6-hPGES, times lower [3] | published Vmax [4]
1 | CCCCC/C=C\C\C=C/C=C/C=C/[C@@H]1O[C@H]1CCCC(=O)O [LTA4, leukotriene (LT) A4] | No activity above background could be detected; also recorded: Not detectable above background | no GST activity could be detected |  | 
2 | B1 |  |  | about 1,000 times | 0.19 µmol/min/mg
